Assay results reported in patent US9205069B2, “Inhibitors of anaphase promoting complex activity” (President and Fellows of Harvard College, priority 2009, dated 2015).

What was measured:
[1] = tested on: proteasomal degradation of ubiquitinated cyclin B1; experiment: degradation of pre-ubiquitinated 35S-cyclin B1 in interphase extract; format: biochemical, Xenopus; details: TAME 200 μM
Procedure: At indicated time points, all protein was precipitated and the level of radioactivity in supernatant was measured by scintillation counting. MG262 was used as a positive control.
A purified MPF complex containing 35S-labeled cyclin B1 was ubiquitinated by APC in a reconstituted ubiquitination system, and then added to interphase Xenopus extract in the presence or absence of inhibitors.

human APC = target: T1, human APC (Homo sapiens, UniProt P30260+Q13042+Q9UJX2+Q9UJX3); experiment: 3H-TAME binding to APC in asynchronous HeLa cell lysate
T1 construct: endogenous in cells; host or cells: asynchronous HeLa cells (lysate)
Source text: The same experiment was done as described in 3C using asynchronous Hela cell lysate.

APC-Cdh1 = experiment: in vitro ubiquitination assay with interphase APC activated by recombinant Cdh1; format: biochemical, Xenopus; details: 200 μM, added into ubiquitination reaction
Source text: APC was then immunoprecipitated and tested in an in vitro ubiquitination assay.

Xenopus APC = experiment: 3H-TAME binding to APC in interphase extract (Cdc27 immunoprecipitation, scintillation counting); details: 200 nM 3H TAME
Procedure: Interphase extract was subjected to three rounds of immunoprecipitation with Cdc27 antibody. […] The specific counts associated with the beads were determined by scintillation counting.
(§1) The specific counts associated with the beads were determined by scintillation counting.
as §1
In parallel, the amount of immunoprecipitated Cdc27 was determined by immunoblot.

[2] = tested on: APC-dependent proteolysis; experiment: cyclin B-luciferase degradation in mitotic Xenopus egg extract (luciferase assay); details: derivatives tested at 200 μM
Procedure: Samples were collected at 60 minutes and the remaining reporter level was measured by luminescence. Interphase extract was used as a negative control.

APC-Cdc20 = experiment: in vitro ubiquitination assay with APC immunopurified from mitotic extract; format: biochemical, Xenopus; details: 200 μM, added into ubiquitination reaction
Source text: APC was immunoprecipitated from mitotic extract and tested in an in vitro ubiquitination assay.

[3] = tested on: cyclin B1 degradation and Cdc27 phosphorylation; experiment: mitotic arrest in Xenopus extract after MPF addition (Western blot); format: biochemical; details: 200 μM, interphase extract plus MPF
[4] = tested on: interaction between APC and IR peptide; experiment: APC recruitment from interphase extract by IR peptide resin; format: binding, Xenopus; details: 200 μM
Procedure: Top panel: Iodoacetyl resin was coupled with cysteine, a 21aa C-terminal peptide of Cdh1 or a 19aa peptide missing the C-terminal IR tail. The resin was incubated with interphase extract and the amount of Cdc27 bound on resin was analyzed.

| competition with specific 3H-TAME binding to human APC (human APC) | competition with specific binding of 3H-TAME to Xenopus APC (Xenopus APC) | activity of TAME derivatives in luciferase assay [2] | APC ligase activity, compound added directly to reconstituted ubiquitination assay (APC-Cdc20) | Structure (SMILES) | degradation of pre-ubiquitinated cyclin B1 [1] | APC-Cdh1 activity, compound added directly to reconstituted assay (APC-Cdh1) | cyclin B1 and Cdc27 phosphorylation after MPF addition [3] | APC recruitment by IR peptide resin [4] |
| --- | --- | --- | --- | --- | --- | --- | --- | --- |
|  |  |  |  | CC(C)C[C@H](NC(=O)[C@H](CC(C)C)NC(=O)[C@H](CC(C)C)NC(=O)OCc1ccccc1)B(O)O [MG262] | strongly inhibited |  |  |  |
| did not | did not | lowest activity | did not inhibit APC | COC(=O)[C@H](CCCNC(=N)N)NC(C)=O [AAME, acetyl-L-arginine methylester] |  | did not inhibit APC | degraded by 30 min | no effect |
